Data reported in article PMC8151276, “An Integrated Approach toward NanoBRET Tracers for Analysis of GPCR Ligand Engagement” (Molecules, 2021).

Legend:
ADRA2A = biological target: T1, ADRA2A (Homo sapiens, UniProt P08913); assay: NanoBRET screen HiBiT-ADRA2A in HEK293; format: binding
T1 construct: purchased Promega (in-house HiBiT-GPCR construct library, NanoBRET)
T1 sequence (P08913 1-465): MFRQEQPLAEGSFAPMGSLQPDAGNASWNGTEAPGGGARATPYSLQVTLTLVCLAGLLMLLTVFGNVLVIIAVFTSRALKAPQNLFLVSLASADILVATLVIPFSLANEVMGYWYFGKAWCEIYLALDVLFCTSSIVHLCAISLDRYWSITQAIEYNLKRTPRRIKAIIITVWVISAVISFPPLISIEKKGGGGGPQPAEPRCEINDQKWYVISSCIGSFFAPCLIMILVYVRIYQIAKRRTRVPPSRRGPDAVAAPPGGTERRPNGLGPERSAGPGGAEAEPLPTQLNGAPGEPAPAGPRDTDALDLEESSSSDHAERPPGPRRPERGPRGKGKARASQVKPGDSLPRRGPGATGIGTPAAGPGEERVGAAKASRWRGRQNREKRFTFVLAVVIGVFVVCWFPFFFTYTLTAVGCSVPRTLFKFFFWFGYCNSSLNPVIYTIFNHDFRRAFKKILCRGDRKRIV
Method: (§1) Each tracer candidate was screened across the entire library of HiBiT-GPCR constructs using NanoBRET as the detection modality. As depicted in Figure 4A, the specificity of interactions was evaluated through decrease in BRET due to competitive displacement of a bound tracer by excess parental compound. Each tracer was analyzed for binding to each HiBiT-GPCR fusion in the absence and in the presence of competing parental compound. Briefly, HEK293 cells were transfected with HiBiT-GPCR constructs diluted into promoterless DNA to reduce expression and maximize translocation to the cell surface. Each tracer candidate was then screened at concentrations of 1 μM and 0.1 μM across cells expressing these fusions. Cells were treated for 1.5 h with tracer either alone or in the presence of 20 μM competing parental compound (i.e., control). BRET was measured upon addition of purified LgBiT and subsequent complementation with HiBiT genetically fused to a GPCR. The specificity of interactions was assessed through a decrease in BRET signal due to competitive displacement of the bound tracer. To further gauge the robustness of these interactions, the fold response over the control (i.e., BRETtracer/BRETcontrol) was calculated. We chose a 1.5-fold response, which translates to ≥7-fold signal over noise as the minimal threshold required to score an interaction as positive.
(§2) HiBiT-GPCR DNA constructs were diluted in 10 mM Tris pH 8 to a final concentration of 0.01 μg/μL, arrayed in 96-well plates and stored at −20 °C. For transfection, HEK293 cells were suspended in Opti-MEM (without phenol red) supplemented with 2% fetal bovine serum (Seradigm) and 100 units/mL penicillin–streptomycin (Gibco) at a final concentration of 220,000 cells/mL and dispensed into white 96-well plates at 90 μL/well. Subsequent transfections and screens were carried using an Agilent Bravo Automated Liquid Handling Platform. First, the 96-well HiBiT DNA arrays were diluted 25-fold in Opti-MEM (without serum or phenol red) to a final concentration of 0.0004 μg/μL and 20 μL of the diluted DNAs were transferred into new 96-well plates. Next, promoterless carrier DNA (1 μg/μL) was diluted 25-fold (0.04 μg/μL) and then dispensed into the diluted arrays at 20 μL/well. Following brief mixing, Viafect transfection reagent (Promega) diluted 16-fold into Opti-MEM was dispensed into the plates at 40 μL/well. After mixing by pipetting, plates were incubated for 10 min on the pipetting station deck. The DNA-transfection reagent complexes were then added to plates containing cells. To facilitate the screen, 10 μL of DNA-transfection reagent complexes were added in duplicates to the top 4 and bottom 4 rows, resulting in two identical 48-well arrays per plate. Plates with transfected cells were incubated for 18–20 h at 37 °C/5% CO2. A screen of each tracer across the entire library using two different concentrations requires duplicate plates of transfected cells. Depending on the number of tracers being screened, transfections can be scaled up using the same ratios. The next day, for each tracer, four 20× screening solutions in tracer dilution buffer (Promega) were prepared: two duplicates at final concentration of 20 μM and two duplicates at a final concentration of 2 μM. […] The four resulting solutions were diluted 4-fold in Opti-MEM without serum or phenol red to generate 5× solutions (5 µM and 0.5 µM tracer +/− 100 μM competing compound). To screen the library, a BioTek MultiFlo FX liquid dispenser was used to dispense 22.5 µL of tracer solution to the top 4 rows and 22.5 µL tracer + competing compound solution to the 4 bottom rows. Plates were briefly mixed on an orbital shaker and incubated for 1.5 h at room temperature. […] Plates were briefly mixed on an orbital shaker and incubated for 15 min to allow complementation.

ADORA2A = biological target: T2, ADORA2A (Homo sapiens, UniProt P29274); assay: NanoBRET screen HiBiT-ADORA2A in HEK293; format: binding
T2 construct: purchased Promega (in-house HiBiT-GPCR construct library, NanoBRET)
T2 sequence (P29274 whole entry): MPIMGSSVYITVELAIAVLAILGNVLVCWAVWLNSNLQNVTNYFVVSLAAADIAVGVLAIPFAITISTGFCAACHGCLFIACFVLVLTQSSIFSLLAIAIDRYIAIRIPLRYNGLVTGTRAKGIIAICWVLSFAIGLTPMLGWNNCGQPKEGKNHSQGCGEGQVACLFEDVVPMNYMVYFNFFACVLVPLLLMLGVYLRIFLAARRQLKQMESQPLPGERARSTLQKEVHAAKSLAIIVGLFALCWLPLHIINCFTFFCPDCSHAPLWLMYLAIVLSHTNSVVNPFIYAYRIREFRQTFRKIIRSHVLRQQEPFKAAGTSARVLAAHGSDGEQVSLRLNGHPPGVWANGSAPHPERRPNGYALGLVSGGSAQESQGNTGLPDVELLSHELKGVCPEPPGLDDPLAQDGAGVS
Method: as §1, §2

`CCCn1c(=O)c2[nH]c(-c3ccc(OCC(=O)NCCNC(=O)CCOCCNC(=O)c4ccc(CNC(=O)CCc5ccc6n5[B-](F)(F)[N+]5=C(c7ccc[nH]7)C=CC5=C6)cc4)cc3)nc2n(CCC)c1=O` [XAC-3-NB590] was tested, and the “NanoBRET Fold Response” value (ADRA2A; ADRA2A, tracer 0.1μM) was 0.97, the “NanoBRET Fold Response” value (ADRA2A; ADRA2A, tracer 1μM) was 1.11 and the “NanoBRET Fold Response” value (ADORA2A; ADORA2A, tracer 0.1μM) was 7.87. The “NanoBRET Fold Response” value (ADORA2A; ADORA2A, tracer 1μM) was 9.18.

For `CN(CCC=C1c2ccccc2CCc2ccccc21)C(=O)CCOCCOCCOCCOCCNC(=O)CCc1ccc2n1[B-](F)(F)[N+]1=C(c3ccc[nH]3)C=CC1=C2` [Amitriptyline-e-2-NB590], the “NanoBRET Fold Response” value (ADRA2A; tracer at 1μM) was 1.09 and the “NanoBRET Fold Response” value (ADORA2A; tracer at 1μM) was 1.07.

In the case of `COc1ccc2c(n1)c(CCNC(C)=O)cn2CCNC(=O)CCc1ccc2n1[B-](F)(F)[N+]1=C(c3ccc[nH]3)C=CC1=C2` [Azamelatonin-1-NB590], the “NanoBRET Fold Response” value (ADRA2A; 0.1μM tracer) was 1.08, the “NanoBRET Fold Response” value (ADRA2A; 1μM tracer) was 1.01 and the “NanoBRET Fold Response” value (ADORA2A; 0.1μM tracer) was 0.87. The “NanoBRET Fold Response” value (ADORA2A; 1μM tracer) was 0.92.
